Columns and labels:
Format in all cases: in vivo
[1] = tested on: giant foxtail (Setaria faberii); test: Test A postemergence; conditions: Setaria faberi, post-emergence, 240 h, 0 to 100 scale, read-out: Plant response rating, Foxtail, Giant
Procedure, shortened: (§1)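 Greenhouse pot test, loam/sand soil. Formulation: non-phytotoxic solvent mix plus surfactant. Pre: directed spray onto soil after sowing. Post: plants at 1–2 leaf, 2–10 cm. Rated visually vs untreated controls at ~10 d, 0 (no effect) to 100 (complete control).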

[2] = tested on: galium (catchweed bedstraw, Galium aparine); test: Test A postemergence; conditions: Galium, post-emergence, 240 h, 0 to 100 scale, read-out: Plant response rating, Galium
Procedure, shortened: as §1

[3] = tested on: Italian ryegrass (Lolium multiflorum); test: Test A postemergence; conditions: Lolium multiflorum, post-emergence, 240 h, 0 to 100 scale, read-out: Plant response rating, Ryegrass, Italian
Procedure, shortened: as §1

[4] = tested on: blackgrass (Alopecurus myosuroides); test: Test A postemergence; conditions: Alopecurus myosuroides, post-emergence, 240 h, 0 to 100 scale, read-out: Plant response rating, Blackgrass
Procedure, shortened: as §1

[5] = tested on: pigweed (Amaranthus retroflexus); test: Test A postemergence; conditions: Amaranthus retroflexus, post-emergence, 240 h, 0 to 100 scale, read-out: Plant response rating, Pigweed
Procedure, shortened: as §1

[6] = tested on: kochia (Kochia scoparia); test: Test A postemergence; conditions: Bassia scoparia, post-emergence, 240 h, 0 to 100 scale, read-out: Plant response rating, Kochia
Procedure, shortened: as §1

[7] = tested on: barnyardgrass (Echinochloa crus-galli); test: Test A postemergence; conditions: Echinochloa crus-galli, post-emergence, 240 h, 0 to 100 scale, read-out: Plant response rating, Barnyardgrass
Procedure, shortened: as §1

[8] = tested on: ragweed (common ragweed, Ambrosia elatior); test: Test A postemergence; conditions: Ambrosia artemisiifolia, post-emergence, 240 h, 0 to 100 scale, read-out: Plant response rating, Ragweed
Procedure, shortened: as §1

[9] = tested on: wheat (Triticum aestivum); test: Test A postemergence; conditions: Triticum aestivum, post-emergence, 240 h, 0 to 100 scale, read-out: Plant response rating, Wheat
Procedure, shortened: as §1

[10] = tested on: corn (Zea mays); test: Test A postemergence; conditions: Zea mays, post-emergence, 240 h, 0 to 100 scale
Procedure, shortened: as §1

[11] = tested on: barnyardgrass (Echinochloa crus-galli); test: Test C preemergence; conditions: Echinochloa crus-galli, pre-emergence, read-out: Plant response rating, Barnyardgrass
From the text: (§2) Seeds of plant species selected from blackgrass (Alopecurus myosuroides), Italian ryegrass (Lolium multiflorum), winter wheat (Triticum aestivum), galium (catchweed bedstraw, Galium aparine), corn (Zea mays), large (Lg) crabgrass (Digitaria sanguinalis), giant foxtail (Setaria faberii), johnsongrass (Sorghum halepense), lambsquarters (Chenopodium album), morningglory (Ipomoea coccinea), yellow nutsedge (Cyperus esculentus), pigweed (Amaranthus retroflexus), ragweed (common ragweed, Ambrosia elatior), soybean (Glycine max), barnyardgrass (Echinochloa crus-galli), oilseed rape (Brassica napus), waterhemp (common waterhemp, Amaranthus rudis), and velvetleaf (Abutilon theophrasti) were planted into a blend of loam soil and sand and treated preemergence with test chemicals formulated in a non-phytotoxic solvent mixture which included a surfactant.
(§3) At the same time, plants selected from these crop and weed species and also chickweed (common chickweed, Stellaria media), kochia (Kochia scoparia), and wild oat (Avena fatua), were planted in pots containing Redi-Earth® planting medium (Scotts Company, 14111 Scottslawn Road, Marysville, Ohio 43041) comprising spaghnum peat moss, vermiculite, wetting agent and starter nutrients and treated with postemergence applications of test chemicals formulated in the same manner. Plants ranged in height from 2 to 18 cm (1- to 4-leaf stage) for postemergence treatments. Treated plants and controls were maintained in a greenhouse for 13 to 15 days, after which time all species were compared to controls and visually evaluated. Plant response ratings, summarized in Table C, are based on a scale of 0 to 100 where 0 is no effect and 100 is complete control. A dash (-) response means no test result.

[12] = tested on: lambsquarters (Chenopodium album); test: Test C preemergence; conditions: Chenopodium album, pre-emergence, 336 h, scale 0 to 100, read-out: Plant response rating, Lambsquarters
From the text: as §2, §3

[13] = tested on: ducksalad (Heteranthera limosa); test: Test B flooded paddy; conditions: Heteranthera limosa, 336 h; 250 g ai/ha, Flood, 13 to 15 days, scale 0 (no effect) to 100 (complete control); read-out: Plant response rating, Ducksalad
Procedure, shortened: (§4)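 Pots were flooded to 3 cm above the soil surface at treatment, compound applied directly to the paddy water, and that depth held throughout. Plants were kept in a greenhouse for 13 to 15 days, then visually rated against untreated controls.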

[14] = tested on: barnyardgrass (Echinochloa crus-galli); test: Test B flooded paddy; conditions: Echinochloa crus-galli, 336 h; 250 g ai/ha, Flood, 13 to 15 days, scale 0 (no effect) to 100 (complete control); read-out: Plant response rating, Barnyardgrass
Procedure, shortened: as §4

[15] = tested on: sedge, umbrella (small-flower umbrella sedge, Cyperus difformis); test: Test B flooded paddy; conditions: Cyperus difformis, 336 h; 250 g ai/ha, Flood, 13 to 15 days, scale 0 (no effect) to 100 (complete control); read-out: Plant response rating, Sedge, Umbrella
Procedure, shortened: as §4

[16] = tested on: rice (Oryza sativa); test: Test B flooded paddy; conditions: Oryza sativa, 336 h; 250 g ai/ha, Flood, 13 to 15 days, scale 0 (no effect) to 100 (complete control); read-out: Plant response rating, Rice
Procedure, shortened: as §4

[17] = tested on: giant foxtail (Setaria faberii); test: Test A preemergence; conditions: Setaria faberi, pre-emergence, 240 h
Procedure, shortened: as §1

[18] = tested on: Italian ryegrass (Lolium multiflorum); test: Test A preemergence; conditions: Lolium multiflorum, pre-emergence, 240 h
Procedure, shortened: as §1

[19] = tested on: pigweed (Amaranthus retroflexus); test: Test A preemergence; conditions: Amaranthus retroflexus, pre-emergence, 240 h
Procedure, shortened: as §1

[20] = tested on: kochia (Kochia scoparia); test: Test A preemergence; conditions: Bassia scoparia, pre-emergence, 240 h
Procedure, shortened: as §1

[21] = tested on: barnyardgrass (Echinochloa crus-galli); test: Test A preemergence; conditions: Echinochloa crus-galli, pre-emergence, 240 h
Procedure, shortened: as §1

[22] = tested on: ragweed (common ragweed, Ambrosia elatior); test: Test A preemergence; conditions: Ambrosia artemisiifolia, pre-emergence, 240 h
Procedure, shortened: as §1

Q: Which results are given for `N#Cc1cccc(Oc2ncc(Br)cn2)c1Oc1ncc(Cl)cn1` [Compound 5, 3-[(5-bromo-2-pyrimidinyl)oxy]-2-[(5-chloro-2-pyrimidinyl)oxy]benzonitrile]?
A: pest or weed control at 31 g/ha ([1]; 31 g ai/ha): 10%; pest or weed control at 125 g/ha ([1]; 125 g ai/ha): 90%; pest or weed control at 31 g/ha ([2]; 31 g ai/ha): 50%; pest or weed control at 125 g/ha ([2]; 125 g ai/ha): 90%; pest or weed control at 31 g/ha ([3]; 31 g ai/ha): 20%; pest or weed control at 125 g/ha ([3]; 125 g ai/ha): 50%; pest or weed control at 31 g/ha ([4]; 31 g ai/ha): 40%; pest or weed control at 125 g/ha ([4]; 125 g ai/ha): 90%; pest or weed control at 31 g/ha ([5]; 31 g ai/ha): 70%; pest or weed control at 125 g/ha ([5]; 125 g ai/ha): 100%; pest or weed control at 31 g/ha ([6]; 31 g ai/ha): 70%; pest or weed control at 125 g/ha ([6]; 125 g ai/ha): 100%; pest or weed control at 31 g/ha ([7]; 31 g ai/ha): 20%; pest or weed control at 125 g/ha ([7]; 125 g ai/ha): 90%; pest or weed control at 31 g/ha ([8]; 31 g ai/ha): 20%; pest or weed control at 125 g/ha ([8]; 125 g ai/ha): 40%; plant injury at 31 g/ha ([9]; 31 g ai/ha): 20%; plant injury at 125 g/ha ([9]; 125 g ai/ha): 40%; Corn plant response rating (crop injury, 0 = no effect, 100 = complete kill) at 31 g/ha ([10]; 31 g ai/ha): 20%; Corn plant response rating (crop injury, 0 = no effect, 100 = complete kill) at 125 g/ha ([10]; 125 g ai/ha): 80%; pest or weed control at 31 g/ha ([11]; 31 g ai/ha, preemergence, scale 0 to 100): 60%; pest or weed control at 62 g/ha ([11]; 62 g ai/ha, preemergence, scale 0 to 100): 85%; pest or weed control at 125 g/ha ([11]; 125 g ai/ha, preemergence, scale 0 to 100): 98%; pest or weed control at 16 g/ha ([11]; Preemergence, 16 g ai/ha, scale 0 to 100 (0 no effect, 100 complete control)): 20%; pest or weed control at 31 g/ha ([12]; 31 g ai/ha, preemergence): 100%; pest or weed control at 62 g/ha ([12]; 62 g ai/ha, preemergence): 100%; pest or weed control at 125 g/ha ([12]; 125 g ai/ha, preemergence): 100%; pest or weed control at 16 g/ha ([12]; Preemergence, 16 g ai/ha): 80%; pest or weed control at 250 g/ha [13]: 100%; pest or weed control at 250 g/ha [14]: 35%; pest or weed control at 250 g/ha [15]: 75%; plant injury at 250 g/ha [16]: 0%; pest or weed control at 31 g/ha ([17]; 31 g ai/ha, 0 to 100 scale (0 no effect, 100 complete control), read-out: Foxtail, Giant plant response rating): 90%; pest or weed control at 125 g/ha ([17]; 125 g ai/ha, 0 to 100 scale, read-out: Plant response rating, Foxtail, Giant): 100%; pest or weed control at 31 g/ha ([18]; 31 g ai/ha, 0 to 100 scale (0 no effect, 100 complete control), read-out: Ryegrass, Italian plant response rating): 0%; pest or weed control at 125 g/ha ([18]; 125 g ai/ha, 0 to 100 scale, read-out: Plant response rating, Ryegrass, Italian): 60%; pest or weed control at 31 g/ha ([19]; 31 g ai/ha, 0 to 100 scale (0 no effect, 100 complete control), read-out: Pigweed plant response rating): 100%; pest or weed control at 125 g/ha ([19]; 125 g ai/ha, 0 to 100 scale, read-out: Plant response rating, Pigweed): 100%; pest or weed control at 31 g/ha ([20]; 31 g ai/ha, 0 to 100 scale (0 no effect, 100 complete control), read-out: Kochia plant response rating): 100%; pest or weed control at 125 g/ha ([20]; 125 g ai/ha, 0 to 100 scale, read-out: Plant response rating, Kochia): 100%; pest or weed control at 31 g/ha ([21]; 31 g ai/ha, 0 to 100 scale (0 no effect, 100 complete control), read-out: Barnyardgrass plant response rating): 20%; pest or weed control at 125 g/ha ([21]; 125 g ai/ha, 0 to 100 scale, read-out: Plant response rating, Barnyardgrass): 80%; pest or weed control at 31 g/ha ([22]; 31 g ai/ha, 0 to 100 scale (0 no effect, 100 complete control), read-out: Ragweed plant response rating): 0%; pest or weed control at 125 g/ha ([22]; 125 g ai/ha, 0 to 100 scale, read-out: Plant response rating, Ragweed): 20%

From patent US20170190671A1, “BIS(ARYL)CATECHOL DERIVATIVES AS HERBICIDES” (E I DU PONT DE NEMOURS AND COMPANY, priority 2014, published 2017)
